Test results reported in patent US6673566B1 (priority 2002, dated 2004).
Entries after “also recorded” stand apart in the source; their conditions may differ.

Tests used:
[1] = system: PBMC from Mycobacterium bovis-infected white-tailed deer; format: cell-based
[2] = system: white-tailed deer adherent peripheral blood mononuclear cells; assay: Nitrite production (Griess reaction) by white-tailed deer monocyte-derived macrophages stimulated with M. haemolytica LPS; format: cell-based; settings: cells stimulated with LPS in the presence of L-NMMA (1.15 mM)
Protocol: Monocytes were isolated from buffy coat fractions of peripheral blood of non-infected deer by adherence in 25 cm^2 flasks at 37° C. for 1 hr. Cells were cultured for 2 wk at 37° C. with 5% CO2 in RPMI 1640 (Gibco, Invitrogen Life Technologies, Frederick, Md., USA) supplemented with L-glutamine, penicillin, streptomycin, 2-ME, 10% heat-inactivated fetal calf serum, and 10% heat-inactivated white-tailed deer serum. Medium was changed every 3-4 days during the culture period. […]
Nitrite is the stable oxidation product of NO and the amount of nitrite within culture supernatants is indicative of the amount of NO produced by cells in culture. Nitrite was measured using the Griess reaction (Rajaraman et al., 1998, Effect of vitamins A and E on nitric oxide production by blood mononuclear leukocytes from neonatal calves fed milk replacer, Journal of Dairy Science, 81:3,278-3,285) performed in 96-well microtiter plates (Immunolon 2, Dynatech Laboratories, Inc., Chantilly, Va., USA). […] Absorbencies of test and standard samples at 550 nm were measured using an automated ELISA plate reader (Molecular Devices, Menlo Park, Calif., USA). […]
Data were analyzed by one-way analysis of variance followed by Tukey-Kramer multiple comparisons test. […]

SMILES: CNC(=N)NCCC[C@H](N)C(=O)O [L-NMMA, N^G-monomethyl-L-arginine]
- Effect of L-NMMA on antigen-stimulated nitrite production [1]: inhibited; also recorded: ablated this response; also recorded: abrogated
- Nitrite levels versus non-stimulated cultures [2]: did not differ
